Data from a melting point compilation (Tetko et al.; mined from patent text by program, amines drawn as free bases though some values may be those of a salt).

| Compound | melting point |
| --- | --- |
| CC(=O)c1c(C#N)nn(-c2c(Cl)cc(OC(F)(F)F)cc2Cl)c1N | 192 to 193 °C |
| CC1(c2ccccc2)CN(c2ccnc(N)c2)C(=O)O1 (stereo not given) | 140 to 141 °C |
| O=c1oc2cc(O)c(O)cc2c2c1CN(CCN1CCOCC1)CC2 | 299 to 302 °C |
| O=C(OCc1ccccc1)c1n[nH]c2c(=O)[nH]c3cc(Cl)ccc3c(=O)c12 | 254 °C |
| O=C(O)C=CC=Cc1cccc2cncn12 | 243 to 245 °C |
| CCCCCCCCCC(N)CCCCCCCCC(N)CCCCCCCCC (stereo not given) | 33 to 37 °C |
| O=c1oc2ccccc2c(O)c1[C@@H]1C[C@@H](c2ccc(OCc3ccc(C(F)(F)F)cc3)cc2)Cc2ccccc21 (relative stereo) | 153 to 155 °C |
| CCC1(c2cccc([N+](=O)[O-])c2)C(=O)NC(=O)NC1=O | 283 to 284 °C |
| CCCN1NC(c2ccc(Cl)cc2)C2=C1C(=Cc1ccc(Cl)cc1)CSC2 (stereo not given) | 192 to 194 °C |
| O=C(Nc1nnn(C(F)F)n1)C1c2ccccc2Oc2ccccc21 | 168 to 169 °C |
| Cn1c(=O)[nH]c(=O)n(-c2cc(N)c(F)cc2Cl)c1=O | 244 to 245 °C |
| CN1C(=O)COc2ccc(C3=NNC(=O)CC3)cc21 | 247 to 248 °C |
| O=C1C[C@@H]2[C@@H](/C=C/[C@H](O)CCc3ccccc3)[C@H](OC(=O)c3ccc(-c4ccccc4)cc3)C[C@@H]2O1 | 81 to 83 °C |
| NCCC(O)(c1ccc(Cl)cc1)c1ccc(-c2ccc(Br)cc2)cc1 (stereo not given) | 154 to 155 °C |
| O=C(CC(=O)c1ccccc1)C(=O)CC(=O)c1ccccc1 | 178 to 180 °C |
| COc1cc(OC)nc(C(C)c2ccccc2NC(=O)OC(C)(C)C)n1 (stereo not given) | 119 to 121 °C |
| CC1C(=O)Nc2c(C(=O)c3ccccc3)cccc21 (stereo not given) | 125 to 127 °C |
| Nc1cc(C(F)(F)F)ccc1C=C1NC(=S)NC1=O | 240 °C |
| Nc1cc(=O)n2cc(Cl)c(C(c3c(F)ccc(F)c3F)S(=O)(=O)CCC(F)(F)F)cc2n1 (stereo not given) | 247 °C |
| C=C(C)C(=O)c1ccc2c(c1)oc(=O)n2C | 127 °C |
| CCOC(=O)c1cn2c3c(c(-c4ccccc4)c(F)cc3c1=O)OCC2C (stereo not given) | 270 to 272 °C |
| COC(=O)C(c1ccccc1)(c1ccccc1)c1c[nH]c(C)n1 | 136 °C |
| Cc1cc(S(=O)(=O)NCC(C)c2ccccc2)ccc1Cl (stereo not given) | 73 to 74 °C |
| CC(O)Cc1cc([N+](=O)[O-])cc([N+](=O)[O-])c1N (stereo not given) | 168 °C |

| Compound | melting point |
| --- | --- |
| COc1cc([N+](=O)[O-])c(NC(C)=O)cc1Cl | 152 to 153 °C |
| C=CC/C=C(\C(=O)O)c1cc(OC)c(O)c2c(Cc3ccccc3)cccc12 | 156 to 158 °C |
| O=C1CN(c2ccncc2)CCN1 | 268 to 270 °C |
| O=C(Nc1ccc(CN2CCOCC2)c2ccccc12)c1cc(F)cc(N2CCOCC2)c1 | 192 to 193 °C |
| Cc1cccc(C2=C(c3ccc(S(C)(=O)=O)cc3)CC(CN(C)C)C2O)c1 (stereo not given) | 165 to 167 °C |
| N#CCCc1cc(N2C(=O)C3=C(CCCC3)C2=O)ccc1Cl | 87 to 97 °C |
| CC1(C#N)CCc2cc(O)c(C(C)(C)C)cc2O1 (stereo not given) | 153 to 155 °C |
| NC[C@@H](O)[C@H](Cc1ccccc1)N(Cc1ccccc1)Cc1ccccc1 | 72 to 76 °C |
| Cn1cnc2cc(C(=O)NC3CC3)c(NC(=O)c3cc(C(F)(F)F)nn3-c3ncccc3Cl)c(Cl)c21 | 148 to 151 °C |
| CCOC(=O)c1ncc2[nH]c3cccc(Oc4ccc(N)cc4)c3c2c1COC | 222 to 224 °C |
| Cc1ccc(Cn2cc(CC(=O)O)c3cc(-c4ccc(OC(F)(F)F)cc4)ccc32)cc1 | 62 to 63 °C |
| CCOC(=O)CNC(=O)CCc1cc(Cl)ccc1C(=O)CCCNC(C)=O | 96 °C |
| COc1cc(OCC(=O)O)c(C)cc1SCc1cccc(-c2cccc(OC(F)(F)F)c2)c1 | 92 to 94 °C |
| O=C(c1ccccc1CBr)c1cc(F)ccc1CBr | 118 to 119 °C |
| COc1ccc(CNS(=O)(=O)Cc2ccc3[nH]cc(CC#N)c3c2)cc1 | 144 to 145 °C |
| N#CN=C(NCCC(=O)O)Nc1ccc2nonc2c1 | 92 °C |
| CCOC(=O)c1c(Cl)c2cc(Oc3ccc(C(F)(F)F)cc3)ccc2n1-c1ccc(OC(C)C)cc1 | 136 to 138 °C |
| COc1cc2c(cc1-c1cccnc1)-c1c(-c3cccs3)c3c(n1CC2)C(=O)N(C(C)C)CCNC3 | 227 to 229 °C |
| O=C(/C=C/c1ccccc1I)NCCO | 130 to 132 °C |
| CCOC(=O)NC(=NCCCc1c[nH]cn1)NCCSCc1ccccn1 | 60 to 61 °C |
| O=C1c2ccc(NC(=O)C3CC3)cc2C(=O)c2cc(NC(=O)C3CC3)ccc21 | 352 °C |
| CCOC(=O)C(C(=O)OCC)C(N)c1ccc(Cl)cc1C(N)C(C(=O)OCC)C(=O)OCC (stereo not given) | 90 to 92 °C |
| Cc1c(C#N)sc2nc(CCc3ccccc3)nc(NC3CCC3)c12 | 153 to 155 °C |
| Cc1cc(C#N)ccc1-c1ccc(-c2nc3cc(C#N)ccc3[nH]2)cc1 | 269 to 270 °C |

| Compound | melting point |
| --- | --- |
| COc1cc2c(cc1OCc1ccccc1)C(OC)CN(Cc1cc(OC)c(OC)c(OC)c1)C2 (stereo not given) | 89 to 90 °C |
| COc1cc(OC)c(-c2cc3ccccc3[nH]2)cc1C=CC(=O)c1ccc(S(=O)(=O)Nc2ccccn2)cc1 | 206 to 208 °C |
| O=S(=O)(O)c1ccc(Nc2ncnc3cc(Cl)ccc23)cc1 | > 300 °C |
| COc1ccccc1N1CCN(C(=O)Nc2nc3ccccc3nc2OC)CC1 | 177 to 178 °C |
| CCCOc1ccc(-c2ccc3c(c2)C=C(C(=O)Nc2ccc(C(O)c4ccccn4)cc2)CCS3(=O)=O)cc1 (stereo not given) | 208 to 210 °C |
| CCC(CC)Oc1cc(C)nc(Oc2c(C)cc(C(=O)O)cc2C)c1C | 168 °C |
| COC(=O)[C@@H]1CCCN1C(=O)CCC(=O)c1ccc(Br)cc1 | 78 to 82 °C |
| CCCc1c2oc(C(=O)O)cc(=O)c2cc2c(=O)ccn(Cc3ccccc3)c12 | > 250 °C |
| CCC(C)c1cc(C=O)cc(C(C)CC)c1O (stereo not given) | 65 to 68 °C |
| CCOC(=O)c1sc(-c2cc3cccc(NS(=O)(=O)c4cccs4)c3[nH]2)nc1C | 226 to 228 °C |
| COCc1cccc(-c2ccc3nc(-c4ccc(Cl)cc4)c(Cl)n3c2)c1 | 120 to 122 °C |
| CS(=O)(=O)c1ccc(-c2cc(=O)n(CC3CCCCC3)nc2-c2ccc(F)cc2)cc1 | 175 to 176 °C |
| CN1CCCC1=C(C#N)c1ccc([N+](=O)[O-])cc1 | 67 °C |
| Clc1nc(NC2CC2)nc(C2CC2)n1 | 66 to 67 °C |
| COc1ccc(C(O)Cc2ccncc2)c2c1OC1(CCCCC1)CC2 (stereo not given) | 123 to 133 °C |
| Cc1ccnc2c([N+](=O)[O-])cc(Cc3cnc(N)nc3N)cc12 | 256 to 258 °C |
| C#CC1N(C(=O)Oc2ccccc2)c2ccc(OC)cc2C23OC12CCCC3=O (stereo not given) | 186 to 188 °C |
| Cc1nnc2ncc(-c3cccc(C(F)(F)F)c3)nn12 | 265 to 268 °C |
| N#CC(C#N)=C1CC(=C(C#N)C#N)c2ccccc21 | 224 to 228 °C |
| C=C1CC(C)(COc2cc(=O)oc3ccccc23)OC1=O (stereo not given) | 161 to 162 °C |
| CCOC(=O)c1c(C(F)(F)C(F)(F)F)[nH]c(C(F)(F)C(F)(F)F)c1C(=O)OCC | 64.5 to 65.5 °C |
| CC1=C(C(=O)O)OCCO1 | 103 to 105 °C |
